Converted amounts (≈) assume the structure as drawn. Read-outs that look alike come from different tables or passages of the source. Where a SMILES comes first, the peptide text is derived from it. [ ]: non-standard residue; d: D form. NMeY = CN[C@@H](Cc1ccc(O)cc1)C(=O)O; NMeL = CN[C@@H](CC(C)C)C(=O)O; dNMeL = CN[C@H](CC(C)C)C(=O)O; Abu = CC[C@H](N)C(=O)O

For data set [1] the following is noted: in vivo, cited from earlier work; for CL Mouse / Vss: iv, 2.1 mg/kg; for Vss / Tmax / T1/2term: mouse; for Tmax: po, 7.1 mg/kg.
The conditions of data set [2]: plasma.
Method: (§1) The values relate to single experiments. […] This has been estimated by looking at independent replicates across the assay dynamic range.
(§2) In order to make predictions of pharmacokinetic properties of these cyclic peptides, further in vitro evaluation was carried out to determine plasma-protein binding (PPB) and metabolic stability in mouse liver microsomes (MLM). […] In order to predict clearance in vivo, evaluation in vitro was assessed in MLM.
A further data set in a line: physchem. The settings on record: pH 6.8, thermodynamic from solid.
A short description of data set [3]: Supercritical fluid chromatography (SFC) retention, exposed polarity. Format: physicochemical. The settings on record: Chirex 3014 column, reflects exposure of polar groups. The text has this:
Conditions for analytical supercritical fluid chromatography (SFC) were taken from previous publications (Goetz et al. [2014a], [b]). The Pirkle chiral stationary phase Chirex 3014, a silica bonded (S)-valine and (R)-1-(α-naphthyl)ethylamine with a urea linkage, was selected. A mobile phase of 15% methanol in supercritical CO2 enabled adequate separation in combination with a low-slope gradient. High retention times were mitigated by increasing the percentage of methanol in the eluent and the addition of the relatively weak salt pair ammonium formate. In the resulting chromatographic system, differences in retention depend upon hydrophobic interactions, the ability for hydrogen bonding, the presence of dipoles, and van der Waals interactions of the solutes with the stationary phase (Goetz et al. [2014a], [b]).
Next, we applied SFC-analysis to compare calculations related to polar surface area with experimentally derived data. […] Thus, calibrated SFC retention times can be compared to the SAPSA values obtained from molecular dynamics. […] As a result, shielding of polar atoms under SFC conditions is realized most optimally in the Abu derivative (4) leading to a short retention time of 2.7 min. […] However, in this case the best permeability was attributed to the Phe analogue. […] However, most likely in the case of peptide (5), for which the MDCK assay is not aligned with PAMPA and SFC, the low predictability for oral uptake would have excluded this candidate from an in vivo experiment. Taking into account the in vitro profiling, it seems possible to identify cyclic peptides with good permeability and solubility.

The conditions of data set [4]: mouse.
Method: (§3) For mouse PK on peptides (4) and (5), blood concentrations versus time profiles were obtained from 2 groups of 3 male C57Bl/6 mice. In the intravenous PK group (n = 3), the compound was administered intravenous (i.v.) by bolus injection (5 mL/kg) at a dose of 1 mg/kg, solubilized in N-Methyl-2-pyrrolidone (10%) and blank plasma (90%). For oral PK, another group of 3 male C57Bl/6 mice, a dose of 3 mg/kg was orally applied (dosing volume of 10 mL/kg) as a homogenous suspension of water (99%), Tween80 (0.5%) and methylcellulose (0.5%).
(§4) For both rodents, blood samples (10–50 µL) were collected at 0.08 (i.v. only), 0.25, 0.5, 1, 2, 4, 7, and 24 h after dosing. […] Analyses of parent compound concentrations were carried out in blood using LC-MS/MS. An aliquot of 30 μL was taken and added to 200 μL MeCN (including Glyburide (c = 50 ng/mL) as internal standard) for protein precipitation. Sample analysis was performed on a LC–MS/MS system consisting of an AB SCIEX API 5500 QTrap mass spectrometer equipped with a TurboIonSpray™ interface (Framingham, USA). The MS system was connected to a HTS CTC PAL auto-sampler (Zwingen, Switzerland) and to a Flux Rheos 2200 pump system (Reinach, Switzerland). The supernatants (2 µL) were injected directly onto the LC-MS/MS system for analysis. The test articles and its internal standard were separated with a Phenomenex Kinetex C18 (50 × 2 mm ID, 2.7 µm pore size). A binary gradient with a mobile phase consisting of water (A) and acetonitrile (B) was used for the LC-separation. Both mobile phases (A) and (B) were acidified with 0.1% formic acid. The elution gradient program was as follows: [time (min), (% mobile phase B): (0, 95) (5.8, 85) (5.81, 99) (6.5, 99) (6.51, 95) (8, 95)]. The column temperature was maintained at 50 °C using a column heater. Under these experimental conditions, the LLOQ was 0.4 ng/mL.
Data set [5] can be described thus: in vitro. Particulars: mouse, microsomes.
Method: as §1, §2
The conditions of data set [6]: mouse, microsomes.
Method: as §1, §2
Data set [7] in a line: in vitro. Particulars: dog, MDCK.
Method: (§5) The values relate to single experiments. For the MDCK assay, the lower limit of quantification (LLOQ) was 5 nM, and for PAMPA 2 nM, respectively. […] This has been estimated by looking at independent replicates across the assay dynamic range.
Another data set is described as follows: in vivo. The settings on record: male, po.
The conditions of data set [8]: mouse, in vivo; for Vd / clearance: iv, 1 mg/kg; for Tmax: po.
Method: as §3, §4
For data set [9] the following is noted: rat, in vivo, 3 mg/kg; for clearance: iv; for AUC: po.
Method: (§6) For rat PK, blood concentration versus time profiles were obtained from 3 male Sprague Dawley rats. For intravenous PK, the compound was administered intravenously by bolus injection (0.5 mL/kg) at a dose of 3 mg/kg, solubilized in N-Methyl-2-pyrrolidone (30%) and PEG200 (70%). For oral PK, after a washout period of 48 h, an oral gavage was administered to the same animals at a dose of 3 mg/kg at a dosing volume of 2.5 mL/kg. The oral dose was dispersed in water (99%), Tween80 (0.5%) and methylcellulose (0.5%), forming a homogenous suspension. For both rodents, blood samples (10–50 µL) were collected at 0.08 (i.v. only), 0.25, 0.5, 1, 2, 4, 7, and 24 h after dosing. To investigate the absorption and the impact of pre-systemic metabolism, the model of portal vein cannulation in rats was applied for compounds orally dosed in a cassette. The week before the PK experiments, the rats were surgically prepared with catheter implantation into the right jugular vein (for collection of blood from the systemic circulation) and the hepatic portal vein (for collection of blood from the portal vein, i.e. after intestinal absorption and metabolism and before liver pe-systemic metabolism). After recovery, the rats were orally dosed by gavage (same dose, volume and formulation as described above), and blood samples (50 µL) were collected at 0.25, 0.5, 1, 2, 4, 7, and 24 h concomitantly from the 2 blood vessels. Analyses of parent compound concentrations were carried out in blood using LC-MS/MS. An aliquot of 30 μL was taken and added to 200 μL MeCN (including Glyburide (c = 50 ng/mL) as internal standard) for protein precipitation. Sample analysis was performed on a LC–MS/MS system consisting of an AB SCIEX API 5500 QTrap mass spectrometer equipped with a TurboIonSpray™ interface (Framingham, USA). The MS system was connected to a HTS CTC PAL auto-sampler (Zwingen, Switzerland) and to a Flux Rheos 2200 pump system (Reinach, Switzerland). The supernatants (2 µL) were injected directly onto the LC-MS/MS system for analysis. The test articles and its internal standard were separated with a Phenomenex Kinetex C18 (50 × 2 mm ID, 2.7 µm pore size). A binary gradient with a mobile phase consisting of water (A) and acetonitrile (B) was used for the LC-separation. Both mobile phases (A) and (B) were acidified with 0.1% formic acid. The elution gradient program was as follows: [time (min), (% mobile phase B): (0, 95) (5.8, 85) (5.81, 99) (6.5, 99) (6.51, 95) (8, 95)]. The column temperature was maintained at 50 °C using a column heater. Under these experimental conditions, the LLOQ was 0.4 ng/mL.
(§7) Accordingly, we decided to conduct a hepatic portal vein (H.P.V.) study in Sprague Dawley rats due to the technical difficulties associated with a smaller species like mice. Rats were equipped with double jugular vein and hepatic portal vein cannulation. A standard jugular vein cannulation experiment was run in parallel as a control.
The conditions of data set [10]: rat, in vivo, po, 3 mg/kg.
Method: as §6, §7

Method for in vivo: as §3, §4
Method for physchem: as §5

What is called Vss is a proportionality between amount in the body and measured concentration, not a real space. What is called Tmax is the time at which the peak concentration occurs. As a reminder, the fraction unbound is free concentration divided by total concentration. A low value points to extensive binding. By thermodynamic solubility is commonly meant the concentration in solution at equilibrium with solid. The microsomal CLint is a measure of how fast metabolising enzymes remove a compound, apart from limits set by blood flow. Higher therefore signals rapid turnover. As for `CC(C)C[C@@H]1NC(=O)[C@H](Cc2ccc(O)cc2)NC(=O)[C@H]2CCCN2C(=O)[C@H](CC(C)C)NC(=O)[C@H](CC(C)C)NC(=O)[C@@H](CC(C)C)NC1=O` [(1), [Tyr-Leu-D-Leu-Leu-Leu-D-Pro-]] (cyclo(LL[dP]YL[dL])), in data set [1], the “CL Mouse” value is 82 ± 15 mL/min/kg, the Vss was 0.8 ± 0.2 L/kg, the Tmax was 36 ± 18 min and the T1/2term was 12 ± 0 min. In data set [2], this compound had an unbound share (fraction unbound) of 0.08. Further, the solubility (thermodynamic) in the data set “physchem” worked out at 151 µM (≈ 108 µg/mL). Moreover, the SFC in data set [3] worked out at 4.8 min. In addition, in [4], the “class for in vivo CL in mice” value is reported as “high CL”. In the data set “in vitro [5]”, this compound gave an intrinsic clearance (microsomal CLint) of 95 µL/min/mg.
For the compound `CC(C)C[C@@H]1NC(=O)[C@H](Cc2ccc(O)cc2)N(C)C(=O)[C@H]2CCCN2C(=O)[C@H](CC(C)C)NC(=O)[C@H](CC(C)C)N(C)C(=O)[C@@H](CC(C)C)N(C)C1=O` [(2), [NMe-Tyr-Leu-NMe-D-Leu-NMe-Leu-Leu-D-Pro]] (cyclo(L[dNMeL][NMeL]L[dP][NMeY])), in data set [1], the “CL Mouse” value was 1 ± 0 mL/min/kg, the distribution volume (Vss) is 0.4 ± 0.0 L/kg, the Tmax is 228 ± 186 min and the T1/2term is 1360 ± 324 min. Moreover, the free fraction (fraction unbound) in data set [2] is less than 0.01. The same compound came in with a thermodynamic solubility in the data set “physchem” of 26 µM (≈ 19.6 µg/mL). Also, the SFC in data set [3] was determined as 4.1 min. The “class for in vivo CL in mice” value in data set [4] is listed as “low CL”. The same compound returned an intrinsic metabolic clearance (microsomal CLint) in “in vitro [5]” of 63 µL/min/mg. The “clearance in the MLM assay (in words)” value in data set [6] is reported as “medium clearance”.
By Papp is commonly meant the rate of passage across a membrane or cell layer, normalised by area and donor concentration. In general, bioavailability refers to dose-corrected exposure relative to a reference, in per cent. Read a low bioavailability as little systemic uptake. By half-life is commonly meant the time in which the quantity being followed falls by half. One may read the Vd as the apparent volume that relates the amount in the body to the concentration in plasma or blood. Read a low Vd as little distribution into tissue. A word on the clearance: it is a measure of how efficiently the substance is removed, as volume per time. On to `CC(C)C[C@@H]1NC(=O)[C@H](Cc2ccccc2)NC(=O)[C@H]2CCCN2C(=O)[C@H](CC(C)C)NC(=O)[C@H](CC(C)C)N(C)C(=O)[C@@H](CC(C)C)N(C)C1=O` [(3), [Phe-Leu-NMe-D-Leu-NMe-Leu-Leu-D-Pro]] (cyclo(FL[dNMeL][NMeL]L[dP])), for which the “Log PAMPA” value was −4.0. Also, the apparent permeability (Papp) in “in vitro [7]” was 11.6 ×10⁻⁶ cm/s. Further, the bioavailability in the data set “in vivo” (OF1, mouse) was found to be 7 ± 2%. For the same compound, in [8], the half-life was 330 ± 24 min, the Vd is 0.6 ± 0.1 L/kg and the clearance is 2 mL/min/kg. Also, the time to peak (Tmax) in [8] (7.5 mg/kg) was 18 ± 6 min. Besides, the unbound share (fraction unbound) in data set [2] was less than 0.01. The solubility (thermodynamic) in “physchem” came to 30 µM (≈ 21.7 µg/mL). Also, in data set [3], the SFC is reported as 2.9 min. Besides, in [4], the “class for in vivo CL in mice” value is “low CL”. The same compound registered an intrinsic clearance (microsomal CLint) in “in vitro [5]” of 488 µL/min/mg. Moreover, the “clearance in the MLM assay (in words)” value in [6] is reported as “very high CL”.
By AUC is commonly meant concentration integrated over time. In the case of `CC[C@@H]1NC(=O)[C@H]2CCCN2C(=O)[C@H](CC(C)C)NC(=O)[C@H](CC(C)C)N(C)C(=O)[C@@H](CC(C)C)N(C)C(=O)[C@H](CC(C)C)NC1=O` [(4), [Abu-Leu-NMe-D-Leu-NMe-Leu-Leu-D-Pro]] (cyclo([Abu]L[dNMeL][NMeL]L[dP])), the “Log PAMPA” value is recorded as −4.3. Moreover, the Papp in the data set “in vitro [7]” stood at 4 ×10⁻⁶ cm/s. The bioavailability in the data set “in vivo” (C57BL/6, mouse) was 39 ± 4%. In [8], this compound had a half-life of 48 ± 12 min, a Vd of 2.1 ± 0.2 L/kg and a clearance of 49 ± 14 mL/min/kg. In addition, in data set [8] (3 mg/kg), the Tmax turned out to be 18 min. The clearance in [9] was 41 mL/min/kg. Besides, the exposure (AUC) in [9] (Jugular vein (AuC)) was determined as 1.66 µM·h. In data set [9] (Portal vein (AuC)), this compound displayed an exposure (AUC) of 1.84 µM·h. Also, the fraction unbound in data set [2] is less than 0.01. For the same compound, the “Liver first pass effect” value in data set [10] came to 11%. Besides, the solubility (thermodynamic) in the data set “physchem” is 602 µM (≈ 399 µg/mL). Also, the SFC in data set [3] is listed as 2.7 min. Further, the “class for in vivo CL in mice” value in data set [4] is listed as “medium CL”. In the data set “in vitro [5]”, this compound yielded a microsomal CLint of 324 µL/min/mg. Besides, in data set [6], the “clearance in the MLM assay (in words)” value was “very high CL”.
Take `CC(C)C[C@@H]1NC(=O)[C@H](C)NC(=O)[C@H]2CCCN2C(=O)[C@H](CC(C)C)NC(=O)[C@H](CC(C)C)N(C)C(=O)[C@@H](CC(C)C)N(C)C1=O` [(5), [Ala-Leu-NMe-D-Leu-NMe-Leu-Leu-D-Pro]] (cyclo(AL[dNMeL][NMeL]L[dP])): the “Log PAMPA” value was −4.6. Moreover, the apparent permeability coefficient (Papp) in “in vitro [7]” stood at 2.7 ×10⁻⁶ cm/s. Besides, the bioavailability in the data set “in vivo” (C57BL/6, mouse) is 23 ± 4%. In addition, in data set [8], the half-life was 24 ± 6 min, the Vd came to 2.8 ± 0.3 L/kg and the clearance amounted to 105 ± 26 mL/min/kg. For the same compound, in data set [8] (3 mg/kg), the time of peak concentration (Tmax) amounted to 18 min. This compound registered a clearance in data set [9] of 70 mL/min/kg. Moreover, in data set [9] (Jugular vein (AuC)), the AUC turned out to be 0.104 µM·h. In [9] (Portal vein (AuC)), this compound yielded an AUC of 0.449 µM·h. For the same compound, the free fraction (fraction unbound) in [2] is less than 0.01. The “Liver first pass effect” value in data set [10] worked out at 77%. Moreover, the thermodynamic solubility in “physchem” is more than 1000 µM. Moreover, the SFC in data set [3] came to 2.8 min. Moreover, the “class for in vivo CL in mice” value in data set [4] is “high CL”. Also, in the data set “in vitro [5]”, the microsomal CLint turned out to be 654 µL/min/mg. The “clearance in the MLM assay (in words)” value in data set [6] is given as “very high CL”.

Values taken from PMC5838147, “Modulation of Oral Bioavailability and Metabolism for Closely Related Cyclic Hexapeptides” (International Journal of Peptide Research and Therapeutics, 2017).
